Key:
Format in all cases: in vivo
[1] = system: ragweed (common ragweed, Ambrosia elatior); experiment: Test A preemergence; conditions: Ambrosia artemisiifolia, pre-emergence, 240 h, preemergence, 0 to 100 scale where 0 is no effect and 100 is complete control, read-out: Ragweed plant response rating; for pest or weed control at 125 g/ha: 125 g ai/ha, approx. 10 d; for pest or weed control at 500 g/ha: 500 g ai/ha
Outline: (§1)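 Ratings of 0 (no effect) to 100 (complete control) come from visual comparison with untreated controls roughly 10 d after treatment. Test chemicals, formulated in a non-phytotoxic solvent mixture with surfactant, were applied either as a preemergence directed soil spray on seeded soil or postemergence to one- to two-leaf plants 2 to 10 cm tall.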

Kochia (Kochia scoparia) [2] = experiment: Test A preemergence; conditions: Bassia scoparia, pre-emergence, 240 h, preemergence, 0 to 100 scale where 0 is no effect and 100 is complete control, read-out: Kochia plant response rating; for pest or weed control at 125 g/ha: 125 g ai/ha, approx. 10 d; for pest or weed control at 500 g/ha: 500 g ai/ha
Outline: as §1

[3] = system: pigweed (Amaranthus retroflexus); experiment: Test A preemergence; conditions: Amaranthus retroflexus, pre-emergence, 240 h, preemergence, 0 to 100 scale where 0 is no effect and 100 is complete control, read-out: Pigweed plant response rating; for pest or weed control at 125 g/ha: 125 g ai/ha, approx. 10 d; for pest or weed control at 500 g/ha: 500 g ai/ha
[4] = system: ryegrass, Italian (Italian ryegrass, Lolium multiflorum); experiment: Test A preemergence; conditions: Lolium multiflorum, pre-emergence, 240 h, preemergence, 0 to 100 scale where 0 is no effect and 100 is complete control, read-out: Ryegrass, Italian plant response rating; for pest or weed control at 125 g/ha: 125 g ai/ha, approx. 10 d; for pest or weed control at 500 g/ha: 500 g ai/ha
Outline: as §1

[5] = system: giant foxtail (Setaria faberii); experiment: Test A preemergence; conditions: Setaria faberi, pre-emergence, 240 h, preemergence, 0 to 100 scale where 0 is no effect and 100 is complete control, read-out: Foxtail, Giant plant response rating; for pest or weed control at 125 g/ha: 125 g ai/ha, approx. 10 d; for pest or weed control at 500 g/ha: 500 g ai/ha
Outline: as §1

[6] = system: barnyardgrass (Echinochloa crus-galli); experiment: Test A preemergence; conditions: Echinochloa crus-galli, pre-emergence, 240 h, preemergence, 0 to 100 scale where 0 is no effect and 100 is complete control, read-out: Barnyardgrass plant response rating; for pest or weed control at 125 g/ha: 125 g ai/ha, approx. 10 d; for pest or weed control at 500 g/ha: 500 g ai/ha
Outline: as §1

rice (Oryra sativa) = experiment: Test B flooded paddy test; conditions: Oryza sativa, 250 g ai/ha, Flood; 0 to 100 scale where 0 is no effect and 100 is complete control; read-out: Rice plant response rating
Outline: (§2)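 Percent control, visually estimated after 13–15 d in the greenhouse on a 0–100 basis, compares treated pots with untreated ones; compound was put into paddy water 3 cm above the soil when plants had two leaves.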

[7] = system: barnyardgrass (Echinochloa crus-galli); experiment: Test B flooded paddy test; conditions: Echinochloa crus-galli, 250 g ai/ha, Flood; 0 to 100 scale where 0 is no effect and 100 is complete control; read-out: Barnyardgrass plant response rating
Outline: as §2

[8] = system: sedge, umbrella (small-flower umbrella sedge, Cyperus difformis); experiment: Test B flooded paddy test; conditions: Cyperus difformis, 250 g ai/ha, Flood; 0 to 100 scale where 0 is no effect and 100 is complete control; read-out: Sedge, Umbrella plant response rating
Outline: as §2

[9] = system: ducksalad (Heteranthera limosa); experiment: Test B flooded paddy test; conditions: Heteranthera limosa, 250 g ai/ha, Flood; 0 to 100 scale where 0 is no effect and 100 is complete control; read-out: Ducksalad plant response rating
Outline: as §2

[10] = system: Galium (catchweed bedstraw, Galium aparine); experiment: Test A postemergence; conditions: Galium, post-emergence, 240 h, postemergence; for pest or weed control at 125 g/ha: 125 g ai/ha, visual injury vs untreated controls after approx. 10 d, 0 = no effect, 100 = complete control, read-out: Galium plant response rating (0 to 100 scale); for pest or weed control at 500 g/ha: 500 g ai/ha, 0 to 100 scale, 0 is no effect, 100 is complete control, read-out: Galium plant response rating
Outline: as §1

[11] = system: ragweed (common ragweed, Ambrosia elatior); experiment: Test A postemergence; conditions: Ambrosia artemisiifolia, post-emergence, 240 h, postemergence; for pest or weed control at 125 g/ha: 125 g ai/ha, visual injury vs untreated controls after approx. 10 d, 0 = no effect, 100 = complete control, read-out: Ragweed plant response rating (0 to 100 scale); for pest or weed control at 500 g/ha: 500 g ai/ha, 0 to 100 scale, 0 is no effect, 100 is complete control, read-out: Ragweed plant response rating
Outline: as §1

Kochia (Kochia scoparia) [12] = experiment: Test A postemergence; conditions: Bassia scoparia, post-emergence, 240 h, postemergence; for pest or weed control at 125 g/ha: 125 g ai/ha, visual injury vs untreated controls after approx. 10 d, 0 = no effect, 100 = complete control, read-out: Kochia plant response rating (0 to 100 scale); for pest or weed control at 500 g/ha: 500 g ai/ha, 0 to 100 scale, 0 is no effect, 100 is complete control, read-out: Kochia plant response rating
Outline: as §1

[13] = system: ryegrass, Italian (Italian ryegrass, Lolium multiflorum); experiment: Test A postemergence; conditions: Lolium multiflorum, post-emergence, 240 h, postemergence; for pest or weed control at 125 g/ha: 125 g ai/ha, visual injury vs untreated controls after approx. 10 d, 0 = no effect, 100 = complete control, read-out: Ryegrass, Italian plant response rating (0 to 100 scale); for pest or weed control at 500 g/ha: 500 g ai/ha, 0 to 100 scale, 0 is no effect, 100 is complete control, read-out: Ryegrass, Italian plant response rating
Outline: as §1

[14] = system: wheat (Triticum aestivum); experiment: Test A postemergence; conditions: Triticum aestivum, post-emergence, 240 h, postemergence; for plant injury at 125 g/ha: 125 g ai/ha, visual injury vs untreated controls after approx. 10 d, 0 = no effect, 100 = complete control, read-out: Wheat plant response rating (0 to 100 scale); for plant injury at 500 g/ha: 500 g ai/ha, 0 to 100 scale, 0 is no effect, 100 is complete control, read-out: Wheat plant response rating
Outline: as §1

SMILES | pest or weed control at 125 g/ha [1] | pest or weed control at 500 g/ha [1] | pest or weed control at 125 g/ha (Kochia (Kochia scoparia) [2]) | pest or weed control at 500 g/ha (Kochia (Kochia scoparia) [2]) | pest or weed control at 125 g/ha [3] | pest or weed control at 500 g/ha [3] | pest or weed control at 125 g/ha [4] | pest or weed control at 500 g/ha [4] | pest or weed control at 125 g/ha [5] | pest or weed control at 500 g/ha [5] | pest or weed control at 125 g/ha [6] | pest or weed control at 500 g/ha [6] | pest or weed control at 250 g/ha (rice (Oryra sativa)) | pest or weed control at 250 g/ha [7] | pest or weed control at 250 g/ha [8] | pest or weed control at 250 g/ha [9] | pest or weed control at 125 g/ha [10] | pest or weed control at 500 g/ha [10] | pest or weed control at 125 g/ha [11] | pest or weed control at 500 g/ha [11] | also measured
CCc1cc([C@H]2CNC(=O)[C@@H]2C(=O)Nc2cccc(F)c2F)cs1 [Compound 1155] | 40% | 80% | 60% | 90% | 0% | 30% | 0% | 30% | 70% | 90% | 90% | 100% | 20% | 50% | 0% | 100% | 40% | 60% | 0% | 40% | pest or weed control at 125 g/ha (Kochia (Kochia scoparia) [12]): 0%; pest or weed control at 500 g/ha (Kochia (Kochia scoparia) [12]): 0%; pest or weed control at 125 g/ha [13]: 0%; pest or weed control at 500 g/ha [13]: 20%; plant injury at 125 g/ha [14]: 20%; plant injury at 500 g/ha [14]: 50%
CCc1cc([C@H]2CN(C)C(=O)[C@@H]2C(=O)Nc2cccc(F)c2F)cs1 [Compound 1157] | 0% | 80% | 90% | 90% | 30% | 60% | 30% | 90% | 90% | 100% | 90% | 90% | 0% | 55% | 0% | 98% | 50% | 60% | 0% | 50% | pest or weed control at 125 g/ha (Kochia (Kochia scoparia) [12]): 0%; pest or weed control at 500 g/ha (Kochia (Kochia scoparia) [12]): 50%; pest or weed control at 125 g/ha [13]: 0%; pest or weed control at 500 g/ha [13]: 40%; plant injury at 125 g/ha [14]: 30%; plant injury at 500 g/ha [14]: 70%
CN1CC[C@H](c2cccc(C(F)(F)F)c2)[C@@H](C(=O)Nc2cccc(F)c2Cl)C1=O [Compound 1158] | 0% | 0% | 30% | 30% | 0% | 0% | 60% | 70% | 100% | 100% | 90% | 100% | 0% | 60% | 0% | 80% | 20% | 30% | 0% | 0% | pest or weed control at 125 g/ha (Kochia (Kochia scoparia) [12]): 0%; pest or weed control at 500 g/ha (Kochia (Kochia scoparia) [12]): 0%; pest or weed control at 125 g/ha [13]: 30%; pest or weed control at 500 g/ha [13]: 50%; plant injury at 125 g/ha [14]: 30%; plant injury at 500 g/ha [14]: 50%
